# Entries after “also recorded” stand apart in the source; their conditions may differ. Read-outs that look alike come from different tables or passages of the source.
# What was measured:
# [1] = test system: TPA-induced epidermal hyperplasia; experiment: Inhibition of TPA-induced epidermal hyperplasia (epidermal thickness) on back skin of mice; type: in vivo, BALB/c mice; conditions: for Emax: read-out: Emax (% inhibition); for Relative potency: hydrocortisone acetate = 1.0; for Synergistic factor: IC50 without auranofin divided by IC50 with auranofin (0.2%); for Synergism with auranofin, epidermal hyperplasia (in words): auranofin (0.2%) co-administered; for Percent increase in the apparent potency of the steroid: in presence of auranofin (0.2%)
# Description: (§1) The mice were housed in stainless steel cages, 6 mice per cage under normal laboratory conditions (room temperature at about 22° C.) at least 7 days before the experiments for acclimatization. Food and water were allowed ad libitum throughout the experiment period. The backs of the mice were shaved with an electric clipper two days before each treatment and only those mice showing no hair regrowth were used (i.e., the mice in the resting phase of the hair growth cycle were selected). During treatment, the mice were held with their tails and put on top of the cage so that they grasped the cage and rested there. The solutions were applied to an area approximately 2 cm×2 cm on the shaved back of the mice by using a “Pipetman” to apply the solution. If auranofin ointment or ointment base was applied, the amount was standardized by using a microspatula which was crimped at one end, the ointment was then put into the ridge and the excess removed by means of another microspatula and applied sparingly twice a day. After a fixed time, the mice were killed routinely by cervical dislocation between 9 a.m. and 11 a.m. to avoid variations due to circadian rhythms, and an area (1 cm×1 cm) was excised from the centre of the treated area by scalpel and scissors. The rest of the tissues were disposed by combustion. The tissues were then fixed, embedded, sectioned and stained.
# Epidermal thickness was determined by image analysis. This image analysis system was a minicomputer (Tracor Northern TN8500) attached to a light microscope (Zeiss Axioplan) and a camcorder (Sony DXC-3000P). Sections were taken from each tissue block and 20 measurements were taken at fixed intervals from each section. The average value for the 20 measurements was obtained and entered as one value for each mouse. The mean and SEM for the six mice in each treatment group were calculated.
# (§2) The percent inhibition of drug on TPA-induced skin responses (i.e., epidermal hyperplasia, inflammatory cell infiltration and skin-fold thickness) was calculated by using the following formula: [formula]
# (§3) This provides estimates of (a) the potency, (b) the efficacy or maximum effect (Emax) and the slope of the log concentration-response curve by using Hill coefficient (γ). The Hill Equation may be expressed as follows: [formula] where IC50 is the drug concentration producing 50% of the maximal response and Emax refers to the maximal effect produced by the drug and is also termed efficacy. Efficacy is the measurement of the intrinsic ability of a drug to initiate a response once it occupies receptor sites. […] The Hill coefficient (γ) measures the slope of the dose-effect curve which can be markedly influenced by the shape of the curve that describes the binding of the drug to the receptor. For many drugs, y lies between 0.6 and 1.5. […] On the other hand, when γ is less than 1, with a shallow hyperbolic concentration effect relationship, the activity occurs over a wide range of drug levels.
# (§4) In the present study, concentration-response curves were obtained for a series of corticosteroids. In these experiments, curve fitting was accomplished using a computer programme called “The Scientist” (MicroMath Scientific Software, Salt Lake City, Utah, USA.) in which the parameters, Emax, IC50 and Hill coefficient (γ) for each steroids were estimated by using non-linear regression and least square fits.
# Mice were divided into treatment groups. TPA and corticosteroids were premixed to the concentrations required and applied to the backs of mice immediately. For those steroids not very soluble in acetone (i.e., betamethasone, dexamethasone, hydrocortisone and hydrocortisone acetate), the drugs were dissolved in 100 μL dimethylformamide before further dilution with acetone. The efficacy of corticosteroids in inhibiting epidermal hyperplasia, inflammatory cell infiltration and skin-fold thickness was assessed as described previously. Concentration-response curves were determined after computer-fitting of data.
# [2] = test system: TPA-induced inflammatory cell infiltration into the dermis; experiment: Inhibition of TPA-induced inflammatory cell infiltration into the dermis of mice; type: in vivo, BALB/c mice; conditions: for IC50 / Emax: Mus musculus; for Emax: read-out: Emax (% inhibition); for Relative potency: hydrocortisone acetate = 1.0; for Synergistic factor: IC50 without auranofin divided by IC50 with auranofin (0.2%)
# Description: as §1
# Infiltration of inflammatory cells was determined by the same image analysis system using the section taken from the block of mouse skin embedded in paraffin wax or Spurr's resin and stained with haematoxylin and eosin or toluidine blue respectively. For each section, 10 fields, unless otherwise stated, were chosen randomly and the cell density per mm^2 of field determined. The average value for the 10 fields was obtained and entered as one value for each mouse. The mean and SEM for the six mice in each treatment group were calculated.
# The measurement of the inflammatory cell infiltration included the background values which included other materials in the dermis stained in the same way.
# as §2, §3, §4
# Mice were divided into treatment groups. TPA and corticosteroids were premixed to the concentrations required and applied to the backs of mice immediately.
# [3] = Mus musculus, from Hill equation, concentration that produced 50% of Emax, read-out: IC50 for inhibition of epidermal thickening (M × 10^−4)
# [4] = Mus musculus, read from concentration-response curve, concentration that inhibited 50% of the TPA effect, read-out: IC50 for inhibition of epidermal thickening (M × 10^−4)
# [5] = Mus musculus, topical, Hill equation fit, means ± SD, steroid premixed with TPA, topical, read-out: IC50 (M × 10^−4)
# [6] = Mus musculus, Hill equation fit, means ± SD, steroid premixed with TPA, topical
# [7] = from Hill equation, concentration that produced 50% of Emax, read-out: IC50 for inhibition of inflammatory cell infiltration in the dermis (M × 10^−4)
# [8] = read from concentration-response curve, concentration that inhibited 50% of the TPA effect, read-out: IC50 for inhibition of inflammatory cell infiltration in the dermis (M × 10^−4)
# [9] = topical, Hill equation fit, means ± SD, steroid premixed with TPA, topical, read-out: IC50 (M × 10^−4)
# [10] = Hill equation fit, means ± SD, steroid premixed with TPA, topical
# [11] = Mus musculus, with auranofin (0.2%), from computer fitted graph, means ± SD, read-out: Apparent IC50 (M × 10^−4) with auranofin
# [12] = Mus musculus, without auranofin, from computer fitted graph, means ± SD, read-out: Apparent IC50 (M × 10^−4) without auranofin
# [13] = with auranofin (0.2%), from computer fitted graph, means ± SD, read-out: Apparent IC50 (M × 10^−4) with auranofin
# [14] = without auranofin, from computer fitted graph, means ± SD, read-out: Apparent IC50 (M × 10^−4) without auranofin
Structure (SMILES),"IC50 [1, 3] [µM]","IC50 [1, 4] [µM]","IC50 [1, 5] [µM]","Emax [1, 6] [%]",Relative potency ([1]; from Hill-equation IC50),Relative potency ([1]; from IC50 read from curve),"IC50 [2, 7] [µM]","IC50 [2, 8] [µM]","IC50 [2, 9] [µM]","Emax [2, 10] [%]",Relative potency ([2]; from Hill-equation IC50),Relative potency ([2]; from IC50 read from curve),Potency for inhibition of TPA-induced epidermal hyperplasia (in words) ([1]; ranking in text),Potency for inhibition of TPA-induced inflammatory cell infiltration (in words) ([2]; ranking in text),Synergistic factor [1],"IC50 [1, 11] [µM]","IC50 [1, 12] [µM]","Synergism with auranofin, epidermal hyperplasia (in words) [1]",Percent increase in the apparent potency of the steroid [1],Synergistic factor [2],also measured
"C[C@H]1C[C@H]2[C@@H]3CCC4=CC(=O)C=C[C@]4(C)[C@@]3(F)[C@@H](O)C[C@]2(C)[C@@]1(O)C(=O)CO [Betamethasone, betamethasone]",2720,5000,1380,94.2 ± 7.33,1.35,1.40,1310,2100,1310 ± 165,74.5 ± 3.29,5.89,5.23,–,–,–,–,–,–,–,–,–
"CC(=O)OCC(=O)[C@@]1(O)CC[C@H]2[C@@H]3CCC4=CC(=O)CC[C@]4(C)[C@H]3[C@@H](O)C[C@@]21C [Hydrocortisone acetate, hydrocortisone acetate]",3670,7000,3670 ± 1200,79.6 ± 7.62,1.0,1.0,7730,11000,7730 ± 1380,79.4,1.0,1.0,low to medium potencies,low to medium potencies,–,–,–,–,–,–,–
CC1(C)O[C@@H]2C[C@H]3[C@@H]4CCC5=CC(=O)CC[C@]5(C)[C@@]4(F)[C@@H](O)C[C@]3(C)[C@]2(C(=O)CCl)O1 [Halcinonide],97,110,97 ± 13,92.5 ± 2.98,37.80,63.64,31,60,31 ± 5,90.3 ± 6.29,249.45,183.33,medium to strong potencies,medium to strong potencies,–,–,–,–,–,–,–
"CCC(=O)OCC(=O)[C@@]1(OC(=O)CC)[C@@H](C)C[C@H]2[C@@H]3CCC4=CC(=O)C=C[C@]4(C)[C@@]3(F)[C@@H](O)C[C@@]21C [Betamethasone dipropionate, betamethasone dipropionate]",81,140,81 ± 36,95.6 ± 6.55,45.27,50.0,29,40,29 ± 6,90.8 ± 3.71,266.66,275.0,–,–,56.0,2.5 ± 0.3,140 ± 36,massive synergism,"5,600%",4.44,"Potency for inhibition of TPA-induced epidermal hyperplasia (in words) [1]: medium to strong potencies; also recorded: strong to very strong potencies; Inhibition of TPA effect (epidermal hyperplasia) ([1]; 1×10^−5 M combined with auranofin (0.2%), FIG. 1): about 65%; inhibition at 10 µM ([1]; Mus musculus, 1×10^−5 M alone, FIG. 1, read-out: Inhibition of TPA effect (epidermal hyperplasia)): ~20%; Ratio of concentration without auranofin to concentration with auranofin for the same effect ([1]; about 65% inhibition level): 50 times; Concentration that, in the absence of auranofin, produced the same effect as the combination ([1]; same effect as 1×10^−5 M with auranofin (0.2%)): 500 µM; Potency for inhibition of TPA-induced inflammatory cell infiltration (in words) [2]: medium to strong potencies; also recorded: strong to very strong anti-inflammatory effect; IC50 [2, 13]: 9 ± 1.6 µM; IC50 [2, 14]: 40 ± 6 µM; Increase in apparent IC50 ([2]; in presence of auranofin (0.2%), Table 10): 400-500%"
"C[C@]12CCC(=O)C=C1CC[C@@H]1[C@@H]2[C@@H](O)C[C@@]2(C)[C@H]1CC[C@]2(O)C(=O)CO [Hydrocortisone, hydrocortisone]",4620,4510,4620 ± 1320,99 ± 9.54,0.79,1.55,6150,6000,6150 ± 966,100,1.26,1.83,low to medium potencies,low to medium potencies,2.05,2200 ± 1120,4500 ± 1320,minor degree of synergism,100%,1.94,"IC50 [2, 13]: 3100 ± 412 µM; IC50 [2, 14]: 6000 ± 966 µM"
